How the values were obtained:
Type in all cases: biochemical
human FLT3 = target: T1, human FLT3 (Homo sapiens, UniProt P36888); experiment: FLT3 kinase assay (DELFIA enzyme inhibition)
T1 construct: a construct expressing the human FLT3 (564-993) with an amino terminal GST tag; host or cells: Sf9 insect cells (baculovirus)
T1 sequence (P36888 564-993): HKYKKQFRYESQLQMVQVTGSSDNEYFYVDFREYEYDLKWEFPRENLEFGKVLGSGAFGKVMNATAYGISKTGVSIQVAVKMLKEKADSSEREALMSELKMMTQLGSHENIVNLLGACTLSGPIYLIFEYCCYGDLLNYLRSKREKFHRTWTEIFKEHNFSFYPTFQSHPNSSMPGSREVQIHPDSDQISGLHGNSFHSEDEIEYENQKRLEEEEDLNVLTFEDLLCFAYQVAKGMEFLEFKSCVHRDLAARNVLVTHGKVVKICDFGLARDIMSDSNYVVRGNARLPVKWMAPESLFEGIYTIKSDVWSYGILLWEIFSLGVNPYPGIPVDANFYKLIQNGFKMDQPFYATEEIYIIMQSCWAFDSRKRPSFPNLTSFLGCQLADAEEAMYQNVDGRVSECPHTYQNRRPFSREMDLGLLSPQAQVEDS
Description: A GST-kinase fusion protein of 70 KDa was produced using sf9 baculovirus expression system, with a construct expressing the human FLT3 (564-993) with an amino terminal GST tag. The protein was purified by one-step affinity chromatography using glutathione-agarose.
FLT3 enzyme activity is determined using a Dissociation Enhanced Lanthanide Fluorescent Immunoassay (DELFIA) with a peptide substrate derived from the Gastrin Precursor (Tyr 87) peptide […] with a core sequence: EAYGW.
The amount of phosphorylated peptide produced is detected by means of a phospho-Tyrosine specific Europium-labelled antibody using Time-Resolved Fluorescence at Excitation 360-35 nm and Emission 620-35 nm.
Assay reactions are set up in a 25 uL final volume on a 96 well plate. […] The reaction is allowed to proceed for 30 minutes at room temperature before stopping with 100 μL Stop solution comprising of 100 mM EDTA, 1×BSA blocker in TBS (Perbio) and 0.05% Surfact-Amps20 (Perbio).
The stopped reaction is transferred to a black 96-well Neutravidin-coated plate (Perbio) and incubated for 30 minutes to capture the biotinylated peptide substrate. After washing wells 3 times with 200 uL TBS/T buffer, Anti-Phospho-Tyr-100 antibody labelled with Eu—N1 (Perkin Elmer AD0159) is added to all wells for 60 minutes at room temperature. After a repeat washing step, DELFIA Enhancement solution (Perkin Elmer) is added to all wells for 5 minutes and the fluorescence measured on a plate reader Analyst HT (Molecular Devices).
The % inhibition of the activity is calculated and plotted in order to determine the concentration of test compound required to inhibit 50% of the enzyme activity (IC50).

human Aurora A = target: T2, human Aurora A (Homo sapiens, UniProt O14965); experiment: Aurora A kinase assay (DELFIA enzyme inhibition); conditions: read-out: Aurora A IC50
T2 construct: Histidine tag (N); host or cells: Sf9 insect cells (baculovirus)
T2 sequence (O14965 1-403): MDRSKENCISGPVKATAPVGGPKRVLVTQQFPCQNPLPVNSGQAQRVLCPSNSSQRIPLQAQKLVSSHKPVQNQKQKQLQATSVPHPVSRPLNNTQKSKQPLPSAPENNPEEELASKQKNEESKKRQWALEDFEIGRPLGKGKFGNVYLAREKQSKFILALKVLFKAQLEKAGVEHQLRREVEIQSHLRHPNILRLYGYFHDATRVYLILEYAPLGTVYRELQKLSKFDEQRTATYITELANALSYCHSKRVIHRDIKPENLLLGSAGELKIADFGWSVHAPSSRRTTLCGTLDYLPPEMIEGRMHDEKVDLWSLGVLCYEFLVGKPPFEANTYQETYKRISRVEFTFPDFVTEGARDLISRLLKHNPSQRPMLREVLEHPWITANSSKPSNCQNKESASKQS
Procedure, shortened: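 DELFIA read-out (time-resolved Eu fluorescence, 620 nm emission) after Neutravidin capture of biotinylated peptide substrate and antibody detection. Reaction: Ni-agarose-purified Aurora A, 30 min at room temperature, stopped with 100 mM EDTA.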

human FLT4 = target: T3, human FLT4 (Homo sapiens, UniProt P35916); experiment: FLT4 kinase assay (DELFIA enzyme inhibition); conditions: read-out: FLT4 IC50
T3 construct: a construct expressing the human FLT4 (789-1207) with an amino terminal GST tag; host or cells: Sf9 insect cells (baculovirus)
T3 sequence (P35916 789-1207): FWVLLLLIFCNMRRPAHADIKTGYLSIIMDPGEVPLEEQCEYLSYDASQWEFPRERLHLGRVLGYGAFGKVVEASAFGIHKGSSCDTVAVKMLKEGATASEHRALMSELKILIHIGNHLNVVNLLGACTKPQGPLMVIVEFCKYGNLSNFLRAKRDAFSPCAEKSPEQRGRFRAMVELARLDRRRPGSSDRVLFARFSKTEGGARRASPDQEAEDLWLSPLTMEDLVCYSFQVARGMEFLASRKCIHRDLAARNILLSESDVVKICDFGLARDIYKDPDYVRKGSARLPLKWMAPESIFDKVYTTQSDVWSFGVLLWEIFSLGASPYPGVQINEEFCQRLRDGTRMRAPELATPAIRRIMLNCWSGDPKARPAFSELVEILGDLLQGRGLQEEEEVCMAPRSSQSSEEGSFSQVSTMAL
Procedure, shortened: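 Read-out is DELFIA: biotinylated MET Tyr1253-derived peptide captured on Neutravidin, phosphotyrosine detected by Eu-antibody time-resolved fluorescence. Enzyme is Sf9-expressed GST-FLT4 (789-1207), reacting 30 min at room temperature before EDTA stop. IC50 derived from plotted % inhibition.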

SMILES | IC50 (human FLT3) [µM] | IC50 (human Aurora A) [µM] | IC50 (human FLT4) [µM]
NCC1CN(C(=O)c2ccc(Nc3oc(-c4c(F)cccc4F)nc3C(N)=O)cc2)CCO1 (stereo not drawn) [Example U-23, 5-(4-(2-(aminomethyl)morpholine-4-carbonyl)phenylamino)-2-(2,6-difluorophenyl) oxazole-4-carboxamide] | < 10 | < 10 | < 10
COc1ccc(-c2oc(Nc3ccccc3OC)nc2C(N)=O)cc1 [Example R-2, 5-(4-methoxyphenyl)-2-(2-methoxyphenylamino)oxazole-4-carboxamide] | < 10 | < 10 | < 10
CC(=O)N1CCN(Cc2ccc(-c3oc(-c4c(F)cccc4F)nc3C(N)=O)cc2)CC1 [Example F-11, 5-(4-((4-acetylpiperazin-1-yl)methyl)phenyl)-2-(2,6-difluorophenyl)oxazole-4-carboxamide] | < 100 | < 10 | < 10
NC(=O)c1nc(-c2c(F)cccc2F)oc1-c1ccc(N)cc1 [Example F-22, 5-(4-aminophenyl)-2-(2,6-difluorophenyl)oxazole-4-carboxamide] | < 10 | < 10 | < 10
NC(=O)c1nc(-c2c(F)cccc2F)oc1Nc1ccc(C(=O)N2CCCCC2)cc1 [Example Q-21, 2-(2,6-difluorophenyl)-5-(4-(piperidine-1-carbonyl)phenylamino)oxazole-4-carboxamide] | < 10 | < 10 | < 10
COc1ccc(-c2oc(-c3cn[nH]c3)nc2C(N)=O)cc1 [Example N-2, 5-(4-methoxyphenyl)-2-(1H-pyrazol-4-yl)oxazole-4-carboxamide] | < 100 | < 10 | < 10
NC(=O)c1nc(-c2c[nH]c3ccccc23)oc1-c1cccs1 [Example E-4, 2-(1H-indol-3-yl)-5-(thiophen-2-yl)oxazole-4-carboxamide] | < 100 | < 100 | < 10
NC(=O)c1nc(-c2c(F)cccc2F)oc1-c1ccc(OCCCN2CCOCC2)cc1 [Example S-13, 2-(2,6-difluorophenyl)-5-(4-(3-morpholinopropoxy)phenyl)oxazole-4-carboxamide] | < 10 | < 10 | < 10
NC(=O)c1nc(-c2c(Cl)cccc2Cl)oc1-c1ccc(OCCN2CCCCC2)cc1 [Example F-25, 2-(2,6-dichlorophenyl)-5-(4-(2-(piperidin-1-yl)ethoxy)phenyl)oxazole-4-carboxamide] | < 10 | < 10 | < 10
NC(=O)c1nc(-c2c(F)cccc2F)oc1Nc1ccc(N2CCNCC2)nc1 [Example Q-47, 2-(2,6-difluorophenyl)-5-(6-(piperazin-1-yl)pyridin-3-ylamino)oxazole-4-carboxamide] | < 10 | < 10 | < 10
CN1CCN(c2ccc(-c3oc(-c4c(F)cccc4F)nc3C(N)=O)cn2)CC1 [Example H-2, 2-(2,6-difluorophenyl)-5-(6-(4-methylpiperazin-1-yl)pyridin-3-yl)oxazole-4-carboxamide] | < 10 | < 10 | < 10
NC(=O)c1nc(-c2c(F)cccc2F)oc1Nc1cccc(N2CCOCC2)c1 [Example Q-2, 2-(2,6-difluorophenyl)-5-(3-morpholinophenylamino)oxazole-4-carboxamide] | < 10 | < 10 | < 10
NCc1ccc(-c2oc(-c3c(F)cccc3F)nc2C(N)=O)cc1 [Example F-16, 5-(4-(aminomethyl)phenyl)-2-(2,6-difluorophenyl)oxazole-4-carboxamide] | < 100 | < 10 | < 10
NC(=O)c1nc(-c2c(F)cccc2F)oc1Nc1ccc(C(=O)O)cc1 [Example U-1, 4-(4-carbamoyl-2-(2,6-difluorophenyl)oxazol-5-ylamino)benzoic acid] | < 10 | < 10 | < 10
NC(=O)c1nc(-c2c(F)cccc2F)oc1-c1cccnc1 [Example F-9, 2-(2,6-difluorophenyl)-5-(pyridin-3-yl)oxazole-4-carboxamideH] | < 100 | < 100 | < 10
CN1CCN(c2ccc(-c3oc(-c4c(F)cccc4F)nc3C(N)=O)cc2)CC1 [Example H-1, 2-(2,6-difluorophenyl)-5-(4-(4-methylpiperazin-1-yl)phenyl)oxazole-4-carboxamide] | < 10 | < 10 | < 10
NC(=O)c1nc(-c2c(F)cccc2F)oc1Nc1ccc(N2CCCCC2)cc1 [Example Q-13, 2-(2,6-difluorophenyl)-5-(4-(piperidin-1-yl)phenylamino)oxazole-4-carboxamide] | < 10 | < 100 | < 10
NC(=O)c1nc(-c2c(F)cccc2F)oc1Nc1ccc(C(=O)NCC2CN(Cc3ccccc3)CCO2)cc1 (stereo not drawn) [Example U-5, 5-(4-(((4-benzylmorpholin-2-yl)methyl)carbamoyl)phenylamino)-2-(2,6-difluorophenyl)oxazole-4-carboxamide] | < 10 | < 10 | < 10
CNC(=O)N1CCN(c2ccc(-c3oc(-c4c(F)cccc4F)nc3C(N)=O)cc2)CC1 [Example J-1, 4-(4-(4-carbamoyl-2-(2,6-difluorophenyl)oxazol-5-yl)phenyl)-N-methylpiperazine-1-carboxamide] | < 10 | < 10 | < 10
COc1ccc(-c2oc(-c3cccc(C(F)(F)F)c3F)nc2C(N)=O)cc1 [Example N-7, 2-(2-fluoro-3-(trifluoromethyl)phenyl)-5-(4-methoxyphenyl)oxazole-4-carboxamide] | < 100 | < 100 | < 100
COc1ccc(-c2oc(Nc3ccccc3)nc2C(N)=O)cc1 [Example R-1, 5-(4-methoxyphenyl)-2-(phenylamino)oxazole-4-carboxamide] | < 10 | < 10 | < 10
CN1CCN(Cc2ccc(-c3oc(-c4c(F)cccc4F)nc3C(N)=O)cc2)CC1 [Example F-10, 2-(2,6-difluorophenyl)-5-(4-((4-methylpiperazin-1-yl)methyl)phenyl)oxazole-4-carboxamide] | < 100 | < 10 | < 10
CNC(=O)N1CCN(c2ccc(-c3oc(-c4c(F)cccc4F)nc3C(N)=O)cn2)CC1 [Example J-2, 4-(5-(4-carbamoyl-2-(2,6-difluorophenyl)oxazol-5-yl)pyridin-2-yl)-N-methylpiperazine-1-carboxamide] | < 10 | < 10 | < 10
CC(C)(C)OC(=O)N1CCC(NC(=O)c2ccc(Nc3oc(-c4c(F)cccc4F)nc3C(N)=O)cc2)CC1 [Example U-20, tert-butyl 4-(4-(4-carbamoyl-2-(2,6-difluorophenyl)oxazol-5-ylamino)benzamido) piperidine-1-carboxylate] | < 10 | < 100 | < 10

From US9187465B2, “Oxazole tyrosine kinase inhibitors” (Sareum Limited, priority 2007, dated 2015)
